Data as given in patent publication US9896456B2, “Pharmaceutical compound having inhibitory activity against cholesterol acyltransferase isozyme 2 (ACAT2)” (School Juridical Person Kitasato Institute, priority 2014, dated 2018).

Target: T1, ACAT2 (Mus musculus, UniProt O88908)
T1 construct: The resulting sediment was collected as a murine hepatic microsome fraction; from tissue; host or cells: mouse liver (hepatic microsome fraction)
T1 sequence (O88908 1-525): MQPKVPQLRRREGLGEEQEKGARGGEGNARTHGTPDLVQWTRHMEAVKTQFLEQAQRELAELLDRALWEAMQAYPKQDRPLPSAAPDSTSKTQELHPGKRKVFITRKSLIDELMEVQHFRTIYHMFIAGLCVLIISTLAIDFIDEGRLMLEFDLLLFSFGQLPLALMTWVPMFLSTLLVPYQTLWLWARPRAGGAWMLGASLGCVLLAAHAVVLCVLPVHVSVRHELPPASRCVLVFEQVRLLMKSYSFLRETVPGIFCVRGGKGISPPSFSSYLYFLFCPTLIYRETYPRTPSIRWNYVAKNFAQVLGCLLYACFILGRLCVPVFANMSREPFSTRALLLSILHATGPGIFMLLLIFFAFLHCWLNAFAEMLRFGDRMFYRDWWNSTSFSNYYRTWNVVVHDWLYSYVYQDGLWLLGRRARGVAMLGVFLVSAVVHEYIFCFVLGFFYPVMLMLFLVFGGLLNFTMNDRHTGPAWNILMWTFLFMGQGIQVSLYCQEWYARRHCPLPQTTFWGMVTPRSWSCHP
Assay: Test of inhibitory activity against ACAT2 (murine hepatic microsome, [1-14C]oleoyl coenzyme A)
Assay type: biochemical
Details: for IC50: murine hepatic microsome fraction as enzyme source, 37° C., 5 minutes; for degree of inhibitory activity against ACAT2 (in words, compared with pyripyropene A): summary of Table 1
Protocol: The compounds produced in accordance with the procedure described above were tested concerning the inhibitory activity against ACAT2 in the manner described below.
The ACAT2 enzyme protein was extracted from the membrane fraction derived from the murine hepatic microsome. Mouse livers were homogenized in buffer A (50 mM Tris-HCl buffer (pH 7.8), 1 mM ethylenediaminetetraacetic acid, and 1 mM phenylmethanesulfonyl fluoride) using a Potter-type homogenizer (Tokyo-RIKO). The homogenate was centrifuged at 12,000×g, and the supernatant was subjected to ultracentrifugation at […]. The resulting sediment was collected as a murine hepatic microsome fraction, and this fraction was adjusted so as to have a protein concentration of 5 mg/ml using buffer A. Thus, an enzyme source of the ACAT2 enzyme protein was obtained.
ACAT2 activity was measured in the manner described below. […] The reaction solution was incubated at 37° C. for 5 minutes. A reaction solution prepared with the addition of 10 μl of methanol in place of the sample was used as a control reaction solution.
After the incubation, the reaction was terminated with the addition of 1.2 ml of a chloroform/methanol (1:2) solution to the reaction solution. […] The resulting chloroform layer was evaporated to dryness and spotted on a thin layer chromatography (TLC) plate (silica gel plate, 0.5 mm thickness, Merck). Separation was carried out with the use of a solvent comprising hexane/diethyl ether/acetic acid (70:30:1, v/v). Subsequently, [^14C] cholesteryl oleate separated on the TLC plate was quantified using FLA 7000 (Fuji Film). […] In quantification of the [^14C] cholesteryl oleate, the radioactivity of a TLC plate onto which no substance had been spotted was designated as the background level.
The symbols used in the table are as defined below.

SMILES | IC50 [µM] | degree of inhibitory activity against ACAT2 (in words, compared with pyripyropene A)
CC(C)[C@@H]1C[C@H](OC(=O)c2ccc(C#N)cc2)[C@@]2(C)Oc3cc(-c4ccccc4)oc(=O)c3[C@H](O)[C@@H]2C1 [PT007, (5aS,6S,8S,9aS,10R)-10-hydroxy-8-isopropyl-5a-methyl-1-oxo-3-phenyl-1,5a,6,7,8,9,9a,10-octahydropyrano[4,3-b]chromen-6-yl 4-cyanobenzoate] | 0.5 to 10 | –
CC(=O)O[C@H]1C[C@@H](C(C)C)C[C@H]2[C@@H](O)c3c(cc(-c4cccnc4)oc3=O)O[C@]12C [PT001, (5aS,6S,8S,9aS,10R)-10-hydroxy-8-isopropyl-5a-methyl-1-oxo-3-(pyridin-3-yl)-1,5a,6,7,8,9,9a,10-octahydropyrano[4,3-b]chromen-6-yl acetate] | 10 to 100 | –
CC(=O)OCC(COC(C)=O)[C@@H]1C[C@H](OC(C)=O)[C@@]2(C)Oc3cc(-c4cccnc4)oc(=O)c3[C@H](O)[C@@H]2C1(C)C [PT010] | 10 to 100 | –
CC(=O)O[C@H]1C[C@@H](C(C)C)C[C@H]2[C@H](O)c3c(cc(-c4ccccc4)oc3=O)O[C@]12C [PT004, (5aS,6S,8S,9aS,10S)-0-hydroxy-8-isopropyl-5a-methyl-1-oxo-3-phenyl-1,5a,6,7,8,9,9a,10-octahydropyrano[4,3-b]chromen-6-yl acetate] | 0.5 to 10 | –
CC(=O)O[C@H]1C[C@@H](C(C)C)C(C)(C)[C@H]2[C@@H](O)c3c(cc(-c4cccnc4)oc3=O)O[C@]12C [PT008, (5aS,6S,8S,9aS,10R)-10-hydroxy-8-isopropyl-5a,9,9-trimethyl-1-oxo-3-(pyridin-3-yl)-1,5a,6,7,8,9,9a,10-octahydropyrano[4,3-b]chromen-6-yl acetate] | 0.5 to 10 | –
CC(=O)O[C@H]1C[C@@H](C(C)C)C[C@H]2C(O)c3c(cc(-c4ccccc4)oc3=O)O[C@]12C (stereo in doubt) [PT003, (5aS,6S,8S,9aS,10R)-10-hydroxy-8-isopropyl-5a-methyl-1-oxo-3-phenyl-1,5a,6,7,8,9,9a,10-octahydropyrano[4,3-b]chromen-6-yl acetate] | 10 to 100 | –
CC(=O)O[C@H]1C[C@@H](C(C)C)C[C@H]2[C@H](O)c3c(cc(-c4cccnc4)oc3=O)O[C@]12C [PT002, (5aS,6S,8S,9aS,10S)-10-hydroxy-8-isopropyl-5a-methyl-1-oxo-3-(pyridin-3-yl)-1,5a,6,7,8,9,9a,10-octahydropyrano[4,3-b]chromen-6-yl acetate] | 10 to 100 | –

More lines, main results first:

IC50 [µM] | SMILES | degree of inhibitory activity against ACAT2 (in words, compared with pyripyropene A)
< 0.5 | CC(C)[C@@H]1C[C@H](OC(=O)c2ccc(C#N)cc2)[C@@]2(C)Oc3cc(-c4cccnc4)oc(=O)c3[C@H](O)[C@@H]2C1(C)C [PT009, (5aS,6S,8S,9aS,10R)-10-hydroxy-8-isopropyl-5a,9,9-trimethyl-1-oxo-3-(pyridin-3-yl)-1,5a,6,7,8,9,9a,10-octahydropyrano[4,3-b]chromen-6-yl 4-cyanobenzoate] | substantially equivalent to that of pyripyropene A
< 0.5 | CC(C)[C@@H]1C[C@H](OC(=O)c2ccc(C#N)cc2)[C@@]2(C)Oc3cc(-c4cccnc4)oc(=O)c3[C@@H](O)[C@@H]2C1 [PT006, (5aS,6S,8S,9aS,10S)-10-hydroxy-8-isopropyl-5a-methyl-1-oxo-3-(pyridin-3-yl)-1,5a,6,7,8,9,9a,10-octahydropyrano[4,3-b]chromen-6-yl 4-cyanobenzoate] | substantially equivalent to that of pyripyropene A
< 0.5 | CC(=O)OCC(COC(C)=O)[C@@H]1C[C@H](OC(=O)c2ccc(C#N)cc2)[C@@]2(C)Oc3cc(-c4cccnc4)oc(=O)c3[C@H](O)[C@@H]2C1(C)C [PT022, 2-((5aS,6S,8S,9aS,10R)-6-((4-cyanobenzoyl)oxy)-10-hydroxy-5a,9,9-trimethyl-1-oxo-3-(pyridin-3-yl)-1,5a,6,7,8,9,9a,10-octahydropyrano[4,3-b]chromen-8-yl)propane-1,3-diyl diacetate] | –
< 0.5 | CC(C)[C@@H]1C[C@H](OC(=O)c2ccc(C#N)cc2)[C@@]2(C)Oc3cc(-c4cccnc4)oc(=O)c3[C@H](O)[C@@H]2C1 [PT005, (5aS,6S,8S,9aS,10R)-10-hydroxy-8-isopropyl-5a-methyl-1-oxo-3-(pyridin-3-yl)-1,5a,6,7,8,9,9a,10-octahydropyrano[4,3-b]chromen-6-yl 4-cyanobenzoate] | substantially equivalent to that of pyripyropene A
